The NIST ThermoML archive (doi:10.1016/j.jct.2010.03.009)

Test: mn = molality of the nth substance listed, in mol/kg
Conditions: 101 kPa, Liquid; for viscosity: Capillary tube (Ostwald / Ubbelohde) method; for mass density: Vibrating tube method

NC(=O)c1ccccc1O [2-hydroxybenzamide] + C[S+](C)[O-]
Conditions | mass density [kg/m3] | viscosity [mPa·s]
293.15 K, m1 = 0.0069 | 1100.6 | 2.276
293.15 K, m1 = 0.0091 | 1100.66 | 2.279
293.15 K, m1 = 0.0114 | 1100.72 | 2.282
293.15 K, m1 = 0.0137 | 1100.78 | 2.285
293.15 K, m1 = 0.016 | 1100.83 | 2.287
293.15 K, m1 = 0.0183 | 1100.86 | 2.289
293.15 K, m1 = 0.0229 | 1100.92 | 2.294
298.15 K, m1 = 0.0069 | 1095.59 | 2.034
298.15 K, m1 = 0.0091 | 1095.64 | 2.038
298.15 K, m1 = 0.0114 | 1095.68 | 2.042
298.15 K, m1 = 0.0137 | 1095.71 | 2.045
298.15 K, m1 = 0.016 | 1095.76 | 2.048
298.15 K, m1 = 0.0183 | 1095.79 | 2.051
298.15 K, m1 = 0.0229 | 1095.8 | 2.056
303.15 K, m1 = 0.0069 | 1090.56 | 1.881
303.15 K, m1 = 0.0091 | 1090.6 | 1.884
303.15 K, m1 = 0.0114 | 1090.63 | 1.887
303.15 K, m1 = 0.0137 | 1090.66 | 1.889
303.15 K, m1 = 0.016 | 1090.69 | 1.892
303.15 K, m1 = 0.0183 | 1090.7 | 1.894
303.15 K, m1 = 0.0229 | 1090.73 | 1.899
308.15 K, m1 = 0.0069 | 1085.51 | 1.732
308.15 K, m1 = 0.0091 | 1085.56 | 1.737
308.15 K, m1 = 0.0114 | 1085.59 | 1.742
308.15 K, m1 = 0.0137 | 1085.63 | 1.747
308.15 K, m1 = 0.016 | 1085.66 | 1.752
308.15 K, m1 = 0.0183 | 1085.69 | 1.756
308.15 K, m1 = 0.0229 | 1085.72 | 1.763
310.15 K, m1 = 0.0069 | 1083.5 | 1.644
310.15 K, m1 = 0.0091 | 1083.55 | 1.645
310.15 K, m1 = 0.0114 | 1083.58 | 1.646
310.15 K, m1 = 0.0137 | 1083.6 | 1.647
310.15 K, m1 = 0.016 | 1083.62 | 1.647
310.15 K, m1 = 0.0183 | 1083.65 | 1.648
310.15 K, m1 = 0.0229 | 1083.66 | 1.649
313.15 K, m1 = 0.0069 | 1080.47 | 1.563
313.15 K, m1 = 0.0091 | 1080.52 | 1.564
313.15 K, m1 = 0.0114 | 1080.55 | 1.565
313.15 K, m1 = 0.0137 | 1080.58 | 1.566
313.15 K, m1 = 0.016 | 1080.6 | 1.567
313.15 K, m1 = 0.0183 | 1080.62 | 1.567
313.15 K, m1 = 0.0229 | 1080.64 | 1.569
